Where “and” joins values, the source holds several entries; their conditions need not be identical. Equal values may be shown once. Read-outs that look alike come from different tables or passages of the source.

A short description of series [1]: Fragrance Fidelity Index (FFI) assigned by perfumers/expert graders on fabric swatches. Also noted: species or system human; key: FFI grade on reference scale anchored by 0, 1, 2, 3 swatches. The text has this: (§1) Blocker materials suitable for use in consumer products of the present invention are chosen for their ability to decrease malodor, while not interfering with perception of a fragrance. Material selection is done by assigning two indices to a test sample material from two reference scales in order to rank odor strengths. The two reference scales are the Fragrance Fidelity Index (FFI) scale and the Blocker Index (BI) scale. The FFI ranks the ability of the test sample material to impart a perceivable odor which could cause interference when combined with another fragrance and the BI ranks the ability of the test sample material to reduce malodor perception. The two methods for assigning the indices to a test sample on the FFI and the BI reference scales are given below.
The first step in the method for assigning an FFI to the test samples on the FFI reference scale is to create the FFI reference swatches. […] Fabric swatches for this test are white knit polycotton (4 inch×4 inch) swatches from EMC ordered as PC 50/50. The supplier is instructed to strip the swatches first, stripping involves washing twice with a fragrance-free detergent and rinsing three times.
Pipette 13 μL of each of the three solutions into the middle of a clean swatch resulting in about a 1 cm diameter of the solution in the middle of the swatch. This will create a sensory scale of three swatches with three different odor levels based on the concentration of the solution pipetted onto the swatch. After drying for 30 minutes in a vented hood, the swatches are wrapped in aluminum foil to prevent odor contamination to the treated swatch. A clean untreated swatch is also included as the lowest anchor point of reference for odor strength on the FFI scale. The FFI reference scale swatches should be used within 0.5 to 12 hours and discarded after 12 hours. The swatches are used as scale anchor points when graders evaluate a test sample(s) and are assigned a Fragrance Fidelity Index (FFI) as show in Table 7.
The perfumer/expert panel is asked to rank order swatches according to a scale between 0 and 3.
The reference swatches represent the 0, 1, 2, and 3 FFIs on the FFI reference scale, Table 9. The expert grader should familiarize them self with the strength of the odor on the FFI reference swatches by sniffing each one starting at 0 (the lowest odor strength) and ending at 3 (the highest odor strength). This should be done prior to evaluating the test sample material treated swatch.
A clean swatch is treated with 13 μL of a known concentration of a test sample material resulting in an about 1 cm of the solution on the clean swatch. Just like the reference swatches, the test sample material swatch is dried in a vented hood for 30 minutes and then wrapped in aluminum foil to prevent contamination. The test material swatches and the FFI reference swatches should be made within 2 hours of each other. The test material swatch must be used within 0.5 to 12 hours and discarded after 12 hours.
At least two perfumers/expert graders are used to assign an FFI grade to a test sample. The perfumer/expert grader smells the test sample swatch by holding that swatch 1 inch from their nose with their nose centered over the area where the test sample was pipetted on to the fabric and then assigns the test sample an FFI grade using the FFI reference scale anchor swatches as references. In cases where the test sample material is graded greater than 3, the test material is not a blocker material or the concentration of the material needs to be lowered and reevaluated to determine if a lower level has a malodor blocker functionality.

A short description of series [2]: Blocker Index (BI) assigned by perfumers/expert graders on isovaleric acid swatches. The arrangement: species or system human; key: BI odor strength 0 (lowest, clean swatch) to 3 (highest).
Description: as §1
The first step in the method for assigning a BI to a test sample material on the BI reference scale is to create the BI reference swatches. […] Fabric swatches for this test are white knit polycotton (4 inch×4 inch) swatches from EMC ordered as PC 50/50. The supplier is instructed to strip the swatches first, stripping involves washing twice with a fragrance-free detergent and rinsing three times.
The BI scale contains one clean swatch with no malodor applied. […] These solutions are pipetted to the middle of the swatches. […] After drying for 30 minutes in a vented hood, the swatches are wrapped in aluminum foil to prevent odor contamination to the treated swatch. A clean untreated swatch is also included as the lowest anchor point of reference for malodor strength on the BI scale. The BI reference scale swatches should be used within 0.5 to 12 hours and discarded after 12 hours. The swatches are used as scale anchor points when graders evaluate a test sample(s) and are assigned a Blocker Index (BI) as show in Table 12.
The perfumer/expert grader is asked to rank order swatches according to a scale between 0 and 3.
The reference swatches represent the 0, 1, 2, and 3 BIs on the BI reference scale, Table 12. The expert grader should familiarizes him/herself with the strength of the odor on the BI reference swatches by sniffing each one starting at 0 (the lowest odor strength) and ending at 3 (the highest odor strength). This should be done prior to evaluating the swatch treated with the test material.
To evaluate the BI, the test material is applied to a malodorous swatch to determine how well the test material blocks the malodor. […] After drying the malodorous swatch a known concentration of test material solution, between 1 ppm and 100 ppm is pipetted onto the malodorous swatch. […] It is sometimes necessary to evaluate several levels of the test material between about 1 and about 100 ppm to determine the BI.
At least two perfumers/expert graders are used to assign the BI to the test sample. […] The test sample swatch is assigned a BI at or between numbers on the BI in table.

Series [3] in a line: Liquid dish neat product liquid-air partition coefficient. The class given is physicochemical.
Series [4] can be described thus: Probability of Ingredient Color Instability. Type of series: physicochemical.
The mark [5] stands for this setting: Conc 50 ppm test material on swatch.
Where [6] appears, read: Conc 50 ppm test material on isovaleric acid swatch.
[7] abbreviates: Conc 10 ppm test material on swatch.
Setting [8] is: Conc 10 ppm test material on isovaleric acid swatch.
Setting [9] is: codes K/L of the Comment Code, Table 1.
[10] abbreviates: class code letter within Comment Code.

In series [1] (setting [5]), `CCCCCCCCCCCCO` [Material 174] registered an FFI of 0.5. The BI in series [2] (setting [6]) turned out to be 2.3.

For `CC1(C)C2CCC3(C2)C1C(=O)CCC3(C)C` (stereo not drawn) [Material 1149], the FFI turned out to be 0 in series [1] (setting [7]) and 0.8 in series [1] (setting [5]). Also, the figures for the BI in series [2] (setting [8]) and in series [2] (setting [6]) were 1.5 and 2.3, respectively. For the same compound, the “Comment Code: Log of liquid dish neat product liquid-air partition coefficient” value (from here on “Comment Code: Log”) in series [3] (code letters K, L) was “K (Log of liquid dish neat product liquid-air partition coefficient greater than or equal to −7)”; in series [3] (setting [9]), “K (Log of liquid dish neat product liquid-air partition coefficient greater than or equal to −7)”.

Consider `CC(=O)OCCCCCCC(C)C` [Material 204], for which the FFI in series [1] (setting [7]) and in series [1] (setting [5]) was 0 in each case. The BI in series [2] (setting [8]) is 2.0; in series [2] (setting [6]), 2.7.

On to `C=C1CCC2OC2(C)CCC2C1CC2(C)C` (stereo not drawn) [Material 1148], for which the FFI in series [1] (setting [5]) is 0.5. This compound came in with a BI in series [2] (setting [6]) of 2.3. Moreover, the “Comment Code: Log” value is “K (Log of liquid dish neat product liquid-air partition coefficient greater than or equal to −7)” in series [3] (code letters K, L) and “K (Log of liquid dish neat product liquid-air partition coefficient greater than or equal to −7)” in series [3] (setting [9]).

In the case of `CCOC(=O)OC1C(C)CCC(C)C1C` (stereo not drawn) [Material 1005], the FFI in series [1] (setting [5]) was 0.5. In addition, in series [2] (setting [6]), the BI is recorded as 2.6.

For the compound `CC(=O)OC1CC2CC1C1CC=CC21` (stereo not drawn) [Material 281], the FFI in series [1] (setting [7]) turned out to be 0; in series [1] (setting [5]), 0.5. Moreover, the BI in series [2] (setting [8]) and in series [2] (setting [6]) was 2.0 throughout. In addition, the “Log of liquid dish neat product liquid-air partition coefficient (Comment Code K/L)” value (from here on “Log … (Comment Code K/L)”) in series [3] (setting [10]) is recorded as “K (Log of liquid dish neat product liquid-air partition coefficient greater than or equal to −7)”. The “Comment Code: Log” value in series [3] (code letters K, L) was “K (Log of liquid dish neat product liquid-air partition coefficient greater than or equal to −7)”.

On to `CC(C)(C)C1CCCCC1` [4-tert-butyl cyclohexane], for which the FFI in series [1] (setting [7]) was found to be 0; in series [1] (setting [5]) it was 0.3. The BI in series [2] (setting [8]) and in series [2] (setting [6]) was 2.0 in each case.

`CCCCCCCCCCCC(=O)OCC` [Material 391] yielded an FFI in series [1] (setting [5]) of 0.3. The BI in series [2] (setting [6]) was 2.2. Moreover, in series [3] (setting [10]), the “Log … (Comment Code K/L)” value is given as “K (Log of liquid dish neat product liquid-air partition coefficient greater than or equal to −7)”.

For `CCC(O)COC1CCCCC1C(C)(C)C` (stereo not drawn) [Material 677], the FFI stood at 0 in series [1] (setting [7]) and 1.8 in series [1] (setting [5]). Further, the figures for the BI in series [2] (setting [8]) and in series [2] (setting [6]) were 2.3 and 2.0, respectively. Further, in series [3], the “Log … (Comment Code K/L)” value is on record as “K (Log of liquid dish neat product liquid-air partition coefficient greater than or equal to −7)”.

With `CCCCCCCCCCCO` [Undecanol], the FFI in series [1] (setting [5]) is given as 0.8. In series [2] (setting [6]), this compound came in with a BI of 2.3.

Take `CC(CCO)CCc1ccccc1` (stereo not drawn) [Material 962]: the FFI was 0 in series [1] (setting [7]) and 0.5 in series [1] (setting [5]). For the same compound, the BI in series [2] (setting [8]) is 2.3; in series [2] (setting [6]), 1.7.

Consider `CC1(C)CCc2ccc(CCC=O)cc21` [Material 261], for which the values for the FFI in series [1] (setting [7]) and in series [1] (setting [5]) were 0 and 1.3, respectively. Further, the BI worked out at 1.8 in series [2] (setting [8]) and 1.3 in series [2] (setting [6]). The “Log … (Comment Code K/L)” value in series [3] (setting [10]) is “K (Log of liquid dish neat product liquid-air partition coefficient greater than or equal to −7)”. The “Comment Code: Log” value in series [3] (code letters K, L) is given as “K (Log of liquid dish neat product liquid-air partition coefficient greater than or equal to −7)”.

On to `CC(C)CC(=O)O` [isovaleric acid, reference compound], for which the “BI grade of reference swatch, Ave” value in series [2] (2 μL 0.08%, all graders (Table 10)) is given as 1.0. For the same compound, the “BI grade of reference swatch, individual Expert Grader” value in series [2] (stripped swatch with 2 μL 0.08%) was 0.5 and 1.0; in series [2] (stripped swatch with 5 μL 0.08%), 2.5; in series [2] (stripped swatch with 20 μL 0.08%), 2.5.

Compound `C=CC(C)=CCC=C(C)C` [Material 524] yielded an FFI in series [1] (setting [5]) of 0. Besides, the BI in series [2] (setting [6]) is 2.8.

For the compound `COC(=O)OC1CC/C=C\CCC1` (stereo not drawn) [Material 1139], the figures for the FFI in series [1] (setting [7]) and in series [1] (setting [5]) were 0 and 1.0, respectively. In addition, the BI turned out to be 2.0 in series [2] (setting [8]) and 2.7 in series [2] (setting [6]).

Take `O=C1CCC2CCCCC2O1` (stereo not drawn) [3,4,4a,5,6,7,8,8a-octahydrochromen-2-one]: the FFI in series [1] (setting [7]) and in series [1] (setting [5]) was 0 in each case. Also, the BI in series [2] (setting [8]) and in series [2] (setting [6]) was 2.0 in each case.

`CCCCCCCC/C=C\CC=O` [Material 884]: the “Probability of Ingredient Color Instability (Comment Code E/F)” value in series [4] is on record as “F (Probability of Ingredient Color Instability<71%)”. The “Log … (Comment Code K/L)” value in series [3] was “K (Log of liquid dish neat product liquid-air partition coefficient greater than or equal to −7)”.

As to `CCCCCCCCCCCCCCCC(=O)OC` [Material 109], in series [2] (setting [8]), the BI was found to be 2.0. Besides, the “Log … (Comment Code K/L)” value in series [3] (setting [10]) is listed as “K (Log of liquid dish neat product liquid-air partition coefficient greater than or equal to −7)”.

For the origin of these results see patent US20160090556A1, “PRODUCTS COMPRISING MALODOR REDUCTION MATERIALS” (The Procter & Gamble Company, priority 2014, published 2016).
